Results from patent US20110082130A1 (LIGAND PHARMACEUTICALS, INC., priority 2006, published 2011).

What follows are molecules tested against T1, chimeric human H3 receptor (Homo sapiens, UniProt Q9Y5N1) (assay: Chimeric human H3 receptor GTP binding assay (agonist-stimulated GTP-gamma35S binding, Example 7)). Conditions: Table I; P2 membranes of Sf9 cells, 1 μM histamine as agonist, Ki from IC50 by Cheng-Prusoff.
T1 construct: made in house; host or cells: Sf9 insect cells (baculovirus); P2 membrane preparation
Format: biochemical
Description: This Example illustrates a representative assay for evaluating agonist-stimulated GTP-gamma^35S binding (“GTP binding”) activity. […] This agonist-stimulated GTP binding activity can also be used to detect partial agonism mediated by antagonist compounds. A compound analyzed in this assay is referred to herein as a “test compound.”
Four independent baculoviral stocks (one directing the expression of the chimeric human H3 receptor and three directing the expression of each of the three subunits of a heterotrimeric G-protein) are used to infect a culture of Sf9 cells as described above. P2 membranes are prepared as described above, and agonist-stimulated GTP binding on the P2 membranes is assessed using histamine (Sigma Chemical Co., St. Louis, Mo.) as agonist in order to ascertain that the receptor/G-protein-alpha-beta-gamma combination(s) yield a functional response as measured by GTP binding. P2 membranes are resuspended by Dounce homogenization (tight pestle) in GTP binding assay buffer (50 mM Tris pH 7.4, 120 mM NaCl, 5 mM MgCl2, 2 mM EGTA, 1 mg/ml BSA, 0.2 mg/ml bacitracin, 0.02 mg/ml aprotinin, 0.01 mg/ml saponin, 10 μM GDP) and added to assay tubes at a concentration of 35 μg protein/reaction tube. After adding increasing doses of histamine at concentrations ranging from 10^−12 M to 10^−5 M, reactions are initiated by the addition of […] GTP-gamma^35S (PERKIN ELMER; Boston, Mass.) with a final assay volume of 0.20 ml. In competition experiments, non-radiolabeled test compounds are added to separate reactions at concentrations ranging from 10^−10 M to 10^−6 M along with 1 μM histamine to yield a final volume of 0.20 ml.
Neutral antagonists are antagonists that are substantially free of inherent agonist activity, and include those test compounds that reduce the histamine-stimulated GTP binding activity towards, but not below, baseline levels. In contrast, in the absence of added histamine, inverse agonists reduce the GTP binding activity of the receptor-containing membranes below baseline.
After a 60-min incubation at room temperature, reactions are terminated by vacuum filtration over WHATMAN GF/C filters (pre-soaked in wash buffer, 0.1% BSA) followed by washing with ice-cold wash buffer (50 mM Tris pH 7.4, 120 mM NaCl). The amount of receptor-bound (and thereby membrane-bound) GTP-gamma^35S is determined by measuring the filter-bound radioactivity, preferably by liquid scintillation spectrometry of the washed filters. Non-specific binding is determined in parallel assays including 10 μM unlabeled GTP-gammaS and typically represents less than 5 percent of total binding. Data is expressed as percent above basal (baseline). The results of GTP binding experiments are analyzed using SIGMAPLOT software (SPSS Inc., Chicago, Ill.). IC50 values are calculated by non-linear regression analysis of dose-response curves using Kaleidograph (Synergy Software, Reading, Pa.).
Alternatively the data is analyzed as follows. First, the average bound radioactivity from negative control wells (no agonist) is subtracted from the bound radioactivity detected for each of the other experimental wells. Second, average bound radioactivity is calculated for the positive control wells (agonist wells). Then, percent inhibition for each compound tested is calculated using the equation:
Calculated IC50 values are converted to K1 values by the Cheng-Prusoff correction (Cheng and Prusoff (1973) Biochem. Pharmacol. 22(23):3099-3108). Accordingly, the following equation: Ki=IC50/(1+[L]/EC50) is used, where [L] is the histamine concentration in the GTP binding assay, and EC50 is the concentration of histamine producing a 50% response, as determined by a dose-response analysis using concentrations of histamine ranging from 10^−10 M to 10^−6M. […]

T1 sequence (Q9Y5N1 with tags, fused parts or gaps): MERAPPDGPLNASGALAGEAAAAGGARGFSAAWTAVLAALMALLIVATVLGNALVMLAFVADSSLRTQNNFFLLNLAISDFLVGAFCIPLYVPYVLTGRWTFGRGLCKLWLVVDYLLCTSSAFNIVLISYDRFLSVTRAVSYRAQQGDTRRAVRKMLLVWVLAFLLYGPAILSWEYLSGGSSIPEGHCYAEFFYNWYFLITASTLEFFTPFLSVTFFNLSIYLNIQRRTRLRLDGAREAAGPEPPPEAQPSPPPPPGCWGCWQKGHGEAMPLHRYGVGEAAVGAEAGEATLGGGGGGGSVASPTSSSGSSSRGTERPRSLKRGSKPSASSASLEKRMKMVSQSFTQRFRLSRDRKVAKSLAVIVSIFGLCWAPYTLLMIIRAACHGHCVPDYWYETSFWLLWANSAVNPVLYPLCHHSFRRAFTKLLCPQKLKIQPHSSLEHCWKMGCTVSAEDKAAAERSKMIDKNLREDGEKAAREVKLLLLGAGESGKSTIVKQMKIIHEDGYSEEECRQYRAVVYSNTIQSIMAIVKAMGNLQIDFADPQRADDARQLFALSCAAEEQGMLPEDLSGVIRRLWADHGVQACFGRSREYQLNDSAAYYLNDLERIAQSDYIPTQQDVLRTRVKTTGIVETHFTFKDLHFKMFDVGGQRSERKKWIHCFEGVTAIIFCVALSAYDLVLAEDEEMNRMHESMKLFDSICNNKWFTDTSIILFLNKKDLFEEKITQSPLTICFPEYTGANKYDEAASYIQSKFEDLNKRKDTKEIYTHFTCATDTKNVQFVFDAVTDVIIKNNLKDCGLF

Ki, < 1000 nM:
O=C(CN1CCc2ccccc2C1)N1CCN(C2CCCC2)CC1 [Compound 46, 2-[2-(4-cyclopentylpiperazin-1-yl)-2-oxoethyl]-1,2,3,4-tetrahydroisoquinoline]
COc1cc2c(cc1OC)CN(CC(=O)N1CCN(C3CCCC3)CC1)CC2 [Compound 47, 2-[2-(4-cyclopentylpiperazin-1-yl)-2-oxoethyl]-6,7-dimethoxy-1,2,3,4-tetrahydroisoquinoline]
COc1cc2c(cc1OC)CN(CC(=O)N1CCN(C3CCC3)CC1)CC2 [Compound 48, 2-[2-(4-cyclobutylpiperazin-1-yl)-2-oxoethyl]-6,7-dimethoxy-1,2,3,4-tetrahydroisoquinoline]
COc1cc2c(cc1OC)CN(CC(=O)N1CCN(C(C)C)CC1)CC2 [Compound 49, 2-[2-(4-isopropylpiperazin-1-yl)-2-oxoethyl]-6,7-dimethoxy-1,2,3,4-tetrahydroisoquinoline]
COc1cc2c(cc1OC)CN(CC(=O)N1CCN(C3CCCCC3)CC1)CC2 [Compound 50, 2-[2-(4-cyclohexylpiperazin-1-yl)-2-oxoethyl]-6,7-dimethoxy-1,2,3,4-tetrahydroisoquinoline]
CC(C)N1CCN(C(=O)CN2CCc3ccccc3C2c2ccccc2)CC1 (stereo not drawn) [Compound 52, 2-[2-(4-isopropylpiperazin-1-yl)-2-oxoethyl]-1-phenyl-1,2,3,4-tetrahydroisoquinoline]
CC(C)N1CCN(C(=O)CN2CCc3ccccc3C2CC2CCCC2)CC1 (stereo not drawn) [Compound 54, 1-(cyclopentylmethyl)-2-[2-(4-isopropylpiperazin-1-yl)-2-oxoethyl]-1,2,3,4-tetrahydroisoquinoline]
CC(C)N1CCN(C(=O)CN2CCc3ccccc3C2Cc2ccccc2)CC1 (stereo not drawn) [Compound 55, 1-benzyl-2-[2-(4-isopropylpiperazin-1-yl)-2-oxoethyl]-1,2,3,4-tetrahydroisoquinoline]
CCC1c2ccccc2CCN1CC(=O)N1CCN(C(C)C)CC1 (stereo not drawn) [Compound 56, 1-ethyl-2-[2-(4-isopropylpiperazin-1-yl)-2-oxoethyl]-1,2,3,4-tetrahydroisoquinoline]
CC(C)CC1c2ccccc2CCN1CC(=O)N1CCN(C(C)C)CC1 (stereo not drawn) [Compound 57, 1-isobutyl-2-[2-(4-isopropylpiperazin-1-yl)-2-oxoethyl]-1,2,3,4-tetrahydroisoquinoline]
CC(C)N1CCN(C(=O)CN2CCc3ccccc3C2c2ccccc2F)CC1 (stereo not drawn) [Compound 58, 1-(2-fluorophenyl)-2-[2-(4-isopropylpiperazin-1-yl)-2-oxoethyl]-1,2,3,4-tetrahydroisoquinoline]
CC(C)N1CCN(C(=O)CN2CCc3ccccc3C2c2ccccc2Cl)CC1 (stereo not drawn) [Compound 59, 1-(2-chlorophenyl)-2-[2-(4-isopropylpiperazin-1-yl)-2-oxoethyl]-1,2,3,4-tetrahydroisoquinoline]
COc1ccc2c(c1)CCN(CC(=O)N1CCN(C3CCC3)CC1)C2 [Compound 60, 2-[2-(4-cyclobutylpiperazin-1-yl)-2-oxoethyl]-6-methoxy-1,2,3,4-tetrahydroisoquinoline]
CC(=O)c1ccc2c(c1)CCN(CC(=O)N1CCN(C3CCC3)CC1)C2 [Compound 61, 1-{2-[2-(4-cyclobutylpiperazin-1-yl)-2-oxoethyl]-1,2,3,4-tetrahydroisoquinolin-6-yl}ethanone]
COc1ccc2c(c1)CCN(CC(=O)N1CCN(C3CCC3)CC1)C2c1ccccc1Cl (stereo not drawn) [Compound 62, 1-(2-chlorophenyl)-2-[2-(4-cyclobutylpiperazin-1-yl)-2-oxoethyl]-6-methoxy-1,2,3,4-tetrahydroisoquinoline]
O=C(CN1CCc2cc(Br)ccc2C1c1ccccc1Cl)N1CCN(C2CCC2)CC1 (stereo not drawn) [Compound 63, 6-bromo-1-(2-chlorophenyl)-2-[2-(4-cyclobutylpiperazin-1-yl)-2-oxoethyl]-1,2,3,4-tetrahydroisoquinoline]
CC(=O)c1ccc2c(c1)CCN(CC(=O)N1CCN(C3CCC3)CC1)C2c1ccccc1Cl (stereo not drawn) [Compound 64, 1-{1-(2-chlorophenyl)-2-[2-(4-cyclobutylpiperazin-1-yl)-2-oxoethyl]-1,2,3,4-tetrahydroisoquinolin-6-yl}ethanone]
O=C(CN1CCc2ncccc2C1)N1CCN(C2CCC2)CC1 [Compound 65, 6-[2-(4-cyclobutylpiperazin-1-yl)-2-oxoethyl]-5,6,7,8-tetrahydro-1,6-naphthyridine]
CNC(=O)c1ccc2c(c1)CN(CC(=O)N1CCN(C3CCC3)CC1)CC2 [Compound 66, 2-[2-(4-cyclobutylpiperazin-1-yl)-2-oxoethyl]-N-methyl-1,2,3,4-tetrahydroisoquinoline-7-carboxamide]
CC(=O)c1ccc(-c2ccc3c(c2)CCN(CC(=O)N2CCN(C4CCC4)CC2)C3)cc1 [Compound 67, 1-(4-{2-[2-(4-cyclobutylpiperazin-1-yl)-2-oxoethyl]-1,2,3,4-tetrahydroisoquinolin-6-yl}phenyl)ethanone]

Same assay, conditions: Table II; "*" = Ki in assay of Example 7 less than 1 micromolar

Ki, < 1000 nM:
CC1CCC[C@H]2CN(C(=O)CN3CCc4nc(-c5cncnc5)ccc4C3)CCN12 (stereo in doubt) [Compound 177, 6-[2-(6-methyloctahydro-2H-pyrido[1,2-a]pyrazin-2-yl)-2-oxoethyl]-2-pyrimidin-5-yl-5,6,7,8-tetrahydro-1,6-naphthyridine]
COc1ccc(-c2ccc3c(n2)CCN(CC(=O)N2CCN4C(C)CCC[C@H]4C2)C3)cc1 (stereo in doubt) [Compound 178, 2-(4-methoxyphenyl)-6-[2-(6-methyloctahydro-2H-pyrido[1,2-a]pyrazin-2-yl)-2-oxoethyl]-5,6,7,8-tetrahydro-1,6-naphthyridine]
CC1CN(c2ccc3c(n2)CCN(CC(=O)N2CCN4C(C)CCC[C@H]4C2)C3)CC(C)O1 (stereo in doubt) [Compound 179, 2-(2,6-dimethylmorpholin-4-yl)-6-[2-(6-methyloctahydro-2H-pyrido[1,2-a]pyrazin-2-yl)-2-oxoethyl]-5,6,7,8-tetrahydro-1,6-naphthyridine]
CC1CCC[C@H]2CN(C(=O)CN3CCc4nc(N5CCC(F)(F)CC5)ccc4C3)CCN12 (stereo in doubt) [Compound 180, 2-(4,4-difluoropiperidin-1-yl)-6-[2-(6-methyloctahydro-2H-pyrido[1,2-a]pyrazin-2-yl)-2-oxoethyl]-5,6,7,8-tetrahydro-1,6-naphthyridine]
COCCN(C)c1ccc2c(n1)CCN(CC(=O)N1CCN3C(C)CCC[C@H]3C1)C2 (stereo in doubt) [Compound 181, N-(2-methoxyethyl)-N-methyl-6-[2-(6-methyloctahydro-2H-pyrido[1,2-a]pyrazin-2-yl)-2-oxoethyl]-5,6,7,8-tetrahydro-1,6-naphthyridin-2-amine]
C[C@H]1CCCN1c1ccc2c(n1)CCN(CC(=O)N1CCN(C3CCC3)CC1)C2 (stereo in doubt) [Compound 223, 6-[2-(4-cyclobutylpiperazin-1-yl)-2-oxoethyl]-2-(2-methylpyrrolidin-1-yl)-5,6,7,8-tetrahydro-1,6-naphthyridine]
C[C@@H](O)c1ccc2c(c1)CCN(CC(=O)N1CCN(C3CCC3)CC1)C2 (stereo in doubt) [Compound 253, 1-{2-[2-(4-cyclobutylpiperazin-1-yl)-2-oxoethyl]-1,2,3,4-tetrahydroisoquinolin-6-yl}ethanol]
